In patent publication US20240417428A1, “POLYPEPTIDE FOR INHIBITING TRPM8 AND USE THEREOF” (ZHEJIANG UNIVERSITY, priority 2021, published 2024):

Assays:
TRPM8 [1] = molecular target: T1, TRPM8 (Mus musculus, UniProt Q8R4D5); assay: Inside-out single-channel recording of menthol-activated TRPM8 at +80 mV; format: cell-based; design: expressed in transfected cells; host or cells: HEK293T; details: saturating menthol (1 mM) alone
Method: (§1) HEK293T cells were cultured in Dulbecco's modified Eagle culture medium under a 37° C., 5% CO2 environment, 10% fetal bovine serum, penicillin (100 U/mL), and streptomycin ([…]) was needed to add into the culture medium. Transient transfection was conducted by using Lipo 2000 (Invitrogen) transfection kit and following the instruction manual.
(§2) Electrophysiological experiment recordings were performed on the cells within 24˜48 h of transient transfections. Specifically, single channel electrophysiological recordings were performed within 8 h after transfection.
(§3) Measurement of the cell currents was respectively performed in the whole-cell recording mode, inside-out recording mode or outside-out recording mode with a HEKA EPC10 amplifier. In the whole cell electrophysiological recordings, glass microelectrodes made of borosilicate material were fire-polished to a original electrode resistance of about 3-6 MΩ. Serial resistance was compensated by 60%. The whole cell electrophysiological recordings were performed at ±80 mV. For single channel electrophysiological recordings, glass microelectrodes were fire-polished to a higher resistance of 6-8 MΩ2. Current signal was sampled at 10 kHz and filtered at 2.9 kHz. Membrane potential of the cell membrane would be clamped at +80 mV. All electrophysiological recordings were performed at room temperature (22° C.) (the maximum variation is 1° C.).
There were different bath and pipette solutions prepared for different ion channels current measurement. For ion channels such as TRPM8, TRPV1, TRPV2, TRPV3 and TRPA1, the formula of the bath and pipette solutions was: 130 mM NaCl, 0.2 mM EDTA and 3 mM HEPES, pH=7.2. For the current measurement of TRPM4 ion channel, the formula of the bath solution was: 130 mM NaCl and 3 mM HEPES, pH=7.2, and the formula of the pipette solution was: 500 μM CaCl2), 130 mM NaCl and 3 mM HEPES, pH=7.2. For the current measurement of TRPM2 ion channel, the formula of the bath solution was: 147 mM NaCl, 2 mM KCl, 1 mM MgCl2, 10 mM HEPES, 2 mM CaCl2) 13 mM Glucose, pH=7.4, and the formula of the pipette solution was: 147 mM NaCl, 1 mM MgCl2, 10 mM HEPES, pH=7.4. For the current measurement of Nav1.5, Nav1.7 ion channels, the formula of the bath solution was: 140 mM NaCl, 3 mM KCl, 1 mM MgCl2, 1 mM CaCl2), 10 mM HEPES, pH=7.2 and the formula of the pipette solution was: 140 mM CsF, 1 mM EGTA, 10 mM NaCl, 10 mM MgCl2, 3 mM KCl, pH=7.2. To evoke sodium channel current, the membrane potential was increased from −80 mV to +10 mV.
A rapid solution changer with a gravity-driven perfusion system (RSC-200, BioLogic) was used to rapidly perfuse specific solutions into the cells to be tested. Each solution was delivered through a separate tube so that there is no mixing of solutions. The glass microelectrode with a membrane patch was placed directly below the outlet of the perfusion tube during the electrophysiology recordings.

TRPM8 [2] = molecular target: T1, TRPM8; assay: Whole-cell electrophysiological recording, menthol-activated TRPM8 in transfected HEK293T cells; format: cell-based; design: expressed in transfected cells; host or cells: HEK293T; details: negative control peptide
Method: as §1, §2
as §3, with “C.). […]” for “C.).”

T1 sequence (Q8R4D5 whole entry): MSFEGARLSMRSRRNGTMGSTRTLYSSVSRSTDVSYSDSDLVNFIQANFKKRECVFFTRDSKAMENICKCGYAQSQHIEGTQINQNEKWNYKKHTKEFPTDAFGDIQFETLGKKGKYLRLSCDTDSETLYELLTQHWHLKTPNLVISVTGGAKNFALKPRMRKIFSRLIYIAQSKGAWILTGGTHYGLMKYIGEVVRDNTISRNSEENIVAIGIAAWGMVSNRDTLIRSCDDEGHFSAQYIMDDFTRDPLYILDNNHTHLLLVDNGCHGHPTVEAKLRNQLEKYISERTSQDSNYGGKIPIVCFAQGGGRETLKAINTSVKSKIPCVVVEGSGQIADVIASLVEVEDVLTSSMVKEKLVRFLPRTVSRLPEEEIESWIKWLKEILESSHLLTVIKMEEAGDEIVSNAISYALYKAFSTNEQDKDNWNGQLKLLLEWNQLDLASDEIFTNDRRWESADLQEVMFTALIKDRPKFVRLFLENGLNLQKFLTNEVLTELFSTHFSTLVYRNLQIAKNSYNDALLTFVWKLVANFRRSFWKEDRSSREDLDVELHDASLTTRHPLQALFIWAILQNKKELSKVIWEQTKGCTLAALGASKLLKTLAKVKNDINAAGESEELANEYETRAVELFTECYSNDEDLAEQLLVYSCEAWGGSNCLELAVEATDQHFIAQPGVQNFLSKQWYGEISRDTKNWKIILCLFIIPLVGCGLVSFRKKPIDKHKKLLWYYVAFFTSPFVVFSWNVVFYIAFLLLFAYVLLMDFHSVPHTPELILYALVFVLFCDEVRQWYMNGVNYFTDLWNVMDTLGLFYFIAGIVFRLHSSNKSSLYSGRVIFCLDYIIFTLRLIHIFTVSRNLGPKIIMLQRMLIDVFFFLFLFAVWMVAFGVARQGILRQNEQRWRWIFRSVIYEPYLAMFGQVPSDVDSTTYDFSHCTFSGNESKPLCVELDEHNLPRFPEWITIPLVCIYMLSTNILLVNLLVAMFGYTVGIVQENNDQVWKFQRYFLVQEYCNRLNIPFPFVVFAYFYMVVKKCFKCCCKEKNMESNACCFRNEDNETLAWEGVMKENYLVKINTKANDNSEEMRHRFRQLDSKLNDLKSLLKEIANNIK

| Compound | maximum open probability of TRPM8 activation (TRPM8 [1]) [%] | single-channel conductance of TRPM8 (TRPM8 [1]; n=3) [pS] | inhibition of TRPM8 (TRPM8 [2]) |
| --- | --- | --- | --- |
| CC1CCC(C(C)C)C(O)C1 (stereo not drawn) [menthol, reference compound] | ~70 | 58.83±1.85 | – |
| CDHRRRQARYRRC [S-DeC-1.2, negative control polypeptide, reference compound] | – | – | did not inhibit TRPM8 |
